US10881110B2, “Herbicidal compositions comprising isoxazolo[5,4-b]pyridines” (BASF SE, priority 2014, dated 2021)

Legend:
Test in all cases: greenhouse post-emergence herbicidal test
APESV = format: in vivo, Apera spica-venti; parameters: key to herbicidal activity against APESV found: rating on a scale from 0 to 100; conditions: post emergence
Description: (§1) The culture containers used were plastic pots containing medium loamy sand with approximately 4.6% of humus and 69.9% sand as substrate. The seeds of the test plants were sown separately for each species.
(§2) For the post-emergence treatment, the test plants were grown to a plant height of from 1 to 15 cm, depending on the plant habit, and only then treated with the active compounds which had been suspended or emulsified in water. To this end, the test plants were either sown directly, and grown in the same containers, or they were first grown separately as seedlings and transplanted into the test containers a few days prior to treatment.
(§3) Depending on the species, the plants were kept at 10-25° C. and 20-35° C., respectively.
(§4) The test period extended over 1 to 3 weeks. During this time, the plants were tended and their response to the individual treatments was evaluated 20 days after treatment except mentioned otherwise.
(§5) Evaluation was carried out using a scale from 0 to 100. 100 means no emergence of the plants, or complete destruction of at least the above-ground parts, and 0 means no damage or normal course of growth.
(§6) The respective stated components A and B, and, if appropriate, C, were formulated as a 10% by weight strength emulsion concentrate and, with addition of the amount of solvent system, introduced into the spray liquor used for applying the active compound. In the examples, the solvent used was water.
(§7) In the examples below, using the method of S. R. Colby (1967) “Calculating synergistic and antagonistic responses of herbicide combinations”, Weeds 15, p. 22 ff., the value E, which is expected if the activity of the individual active compounds is only additive, was calculated. E=X+Y−(X·Y/100)

GERDI = format: in vivo, Geranium dissectum; parameters: key to herbicidal activity against GERDI found: rating on a scale from 0 to 100; conditions: post emergence
Description: as §1, §2, §3, §4, §5, §6, §7

ALOMY = format: in vivo, Alopecurus myosuroides; parameters: key to herbicidal activity against ALOMY found: rating on a scale from 0 to 100; conditions: post emergence
Description: as §1, §2, §3, §4, §5, §6, §7

VIOAR = format: in vivo, Viola arvensis; parameters: key to herbicidal activity against VIOAR found / herbicidal activity against VIOLA found: rating on a scale from 0 to 100; conditions: post emergence
Description: as §1, §2, §3, §4, §5, §6, §7

ERICA = format: in vivo, Conyza canadensis; parameters: key to herbicidal activity against ERICA found: rating on a scale from 0 to 100; conditions: post emergence
Description: as §1, §2, §3, §4, §5, §6, §7

ABUTH = format: in vivo, Abutilon theophrast; parameters: key to herbicidal activity against ABUTH found: rating on a scale from 0 to 100; conditions: post emergence
Description: as §1, §2, §3, §4, §5, §6, §7

POLCO = format: in vivo, Polygonum convolvulus; conditions: post emergence
Description: as §1, §2, §3, §4, §5, §6, §7

PAPRH = format: in vivo, Papaver rhoeas; parameters: key: rating on a scale from 0 to 100
Description: as §1, §2, §3, §4, §5, §6, §7

IPOHE = format: in vivo, Ipomoea hederacea; conditions: Ipomoea hederacea, post-emergence, 480 h, B.97 alone 750 g/ha a.i., post emergence; read-out: herbicidal activity against IPOHE found
Description: as §1, §2, §3, §4, §5, §6, §7

MATCH = format: in vivo, Matricaria recutita; parameters: key to herbicidal activity against MATCH found: rating on a scale from 0 to 100; conditions: post emergence
Description: as §1, §2, §3, §4, §5, §6, §7

GALAP = format: in vivo, Galium aparine; parameters: key to herbicidal activity against GALAP found: rating on a scale from 0 to 100; conditions: post emergence
Description: as §1, §2, §3, §4, §5, §6, §7

KCHSC = format: in vivo, Kochia scoparia; conditions: post emergence
Description: as §1, §2, §3, §4, §5, §6, §7

[1] = g/ha a.i.: I.1 62.5, B.52 2.5, mixture 62.5+2.5
[2] = g/ha a.i.: I.1 125, B.52 2.5, mixture 125+2.5
[3] = g/ha a.i.: I.1 31.25, B.52 2.5, mixture 31.25+2.5
[4] = g/ha a.i.: I.1 31.25, B.52 5, mixture 31.25+5

## COc1cnc(OC)n2nc(NS(=O)(=O)c3c(OCC(F)F)cccc3C(F)(F)F)nc12 [B.52, penoxsulam]
APESV; [1]
  herbicidal activity against APESV found: 55
APESV; [2]
  herbicidal activity against APESV found: 55
GERDI; [3]
  herbicidal activity against GERDI found: 80
GERDI; [1]
  herbicidal activity against GERDI found: 80
GERDI; [2]
  herbicidal activity against GERDI found: 80
ALOMY; [3]
  herbicidal activity against ALOMY found: 55
ALOMY; [1]
  herbicidal activity against ALOMY found: 55
ALOMY; [2]
  herbicidal activity against ALOMY found: 55
VIOAR; [1]
  herbicidal activity against VIOAR found: 0
VIOAR; [2]
  herbicidal activity against VIOAR found: 0
VIOAR; g/ha a.i.: I.1 125, B.52 5, mixture 125+5
  herbicidal activity against VIOAR found: 60
ERICA; [3]
  herbicidal activity against ERICA found: 90
ERICA; [4]
  herbicidal activity against ERICA found: 90
ERICA; [1]
  herbicidal activity against ERICA found: 90
ERICA; g/ha a.i.: I.1 62.5, B.52 5, mixture 62.5+5
  herbicidal activity against ERICA found: 90
ABUTH; [3]
  herbicidal activity against ABUTH found: 85
ABUTH; [4]
  herbicidal activity against ABUTH found: 90
ABUTH; [1]
  herbicidal activity against ABUTH found: 85

## CCS(=O)(=O)c1nc2ccccn2c1S(=O)(=O)NC(=O)Nc1nc(OC)cc(OC)n1 [B.60, sulfosulfuron]
APESV; Apera spica-venti, post-emergence, 480 h, 3 g/ha a.i., read-out: herbicidal activity against APESV found
  pest or weed control at 3 g/ha: 60%
POLCO; Fallopia convolvulus, post-emergence, 480 h, 3 g/ha a.i., read-out: herbicidal activity against POLCO found
  pest or weed control at 3 g/ha: 90%
ALOMY; Alopecurus myosuroides, post-emergence, 480 h, 3 g/ha a.i., read-out: herbicidal activity against ALOMY found
  pest or weed control at 3 g/ha: 60%
PAPRH; 3 g/ha a.i.
  herbicidal activity against PAPRH found: 90
VIOAR; Viola arvensis, post-emergence, 3 g/ha a.i., read-out: herbicidal activity against VIOAR found
  pest or weed control at 3 g/ha: 65%
ERICA; Erigeron canadensis, post-emergence, 480 h, 3 g/ha a.i., read-out: herbicidal activity against ERICA found
  pest or weed control at 3 g/ha: 75%

## CC1(C)CON(Cc2ccccc2Cl)C1=O [B.97, clomazone]
ALOMY; Alopecurus myosuroides, post-emergence, 480 h, B.97 alone 375 g/ha a.i., read-out: herbicidal activity against ALOMY found
  pest or weed control at 375 g/ha: 45%
ALOMY; Alopecurus myosuroides, post-emergence, 480 h, B.97 alone 750 g/ha a.i., read-out: herbicidal activity against ALOMY found
  pest or weed control at 750 g/ha: 60%
IPOHE
  pest or weed control at 750 g/ha: 45%
VIOAR; Viola arvensis, post-emergence, B.97 alone 375 g/ha a.i., read-out: herbicidal activity against VIOAR found
  pest or weed control at 375 g/ha: 85%
ERICA; Erigeron canadensis, post-emergence, 480 h, B.97 alone 375 g/ha a.i., read-out: herbicidal activity against ERICA found
  pest or weed control at 375 g/ha: 50%
ERICA; Erigeron canadensis, post-emergence, 480 h, B.97 alone 750 g/ha a.i., read-out: herbicidal activity against ERICA found
  pest or weed control at 750 g/ha: 65%

## CCC/C(=N\OCC)C1=C(O)CC(C2CCCSC2)CC1=O (stereo not shown) [cycloxidim]
MATCH; single active, 5 g/ha a.i.
  herbicidal activity against MATCH found: 65
APESV; single active, 5 g/ha a.i.
  herbicidal activity against APESV found: 30
GERDI; single active, 2.5 g/ha a.i.
  herbicidal activity against GERDI found: 0
GERDI; single active, 5 g/ha a.i.
  herbicidal activity against GERDI found: 20
VIOAR; single active, 2.5 g/ha a.i.
  herbicidal activity against VIOAR found: 0
GALAP; single active, 5 g/ha a.i.
  herbicidal activity against GALAP found: 25

## CC(C)=NOCCOC(=O)[C@@H](C)Oc1ccc(Oc2cnc3cc(Cl)ccc3n2)cc1 [propaquizafop]
APESV; applied alone at 5 g/ha a.i.
  herbicidal activity against APESV found: 65
POLCO; applied alone at 5 g/ha a.i.
  herbicidal activity against POLCO found: 0
POLCO; applied alone at 10 g/ha a.i.
  herbicidal activity against POLCO found: 0
ALOMY; applied alone at 5 g/ha a.i.
  herbicidal activity against ALOMY found: 55
ALOMY; applied alone at 10 g/ha a.i.
  herbicidal activity against ALOMY found: 65
KCHSC; applied alone at 5 g/ha a.i.
  herbicidal activity against KCHSC found: 0
KCHSC; applied alone at 10 g/ha a.i.
  herbicidal activity against KCHSC found: 10
ERICA; applied alone at 5 g/ha a.i.
  herbicidal activity against ERICA found: 0
GALAP; applied alone at 5 g/ha a.i.
  herbicidal activity against GALAP found: 0
GALAP; applied alone at 10 g/ha a.i.
  herbicidal activity against GALAP found: 10
ABUTH; applied alone at 10 g/ha a.i.
  herbicidal activity against ABUTH found: 30

## CCOC(=O)[C@@H](C)Oc1ccc(Oc2cnc3cc(Cl)ccc3n2)cc1 [quizalofop-p-ethyl]
MATCH; applied alone at 15 g/ha a.i.
  herbicidal activity against MATCH found: 0
PAPRH; applied alone at 15 g/ha a.i.
  herbicidal activity against PAPRH found: 50
VIOAR; applied alone at 7.5 g/ha a.i.
  herbicidal activity against VIOAR found: 0
VIOAR; applied alone at 15 g/ha a.i.
  herbicidal activity against VIOAR found: 0
ERICA; applied alone at 7.5 g/ha a.i.
  herbicidal activity against ERICA found: 0
ERICA; applied alone at 15 g/ha a.i.
  herbicidal activity against ERICA found: 20
ABUTH; applied alone at 7.5 g/ha a.i.
  herbicidal activity against ABUTH found: 15
ABUTH; applied alone at 15 g/ha a.i.
  herbicidal activity against ABUTH found: 25
